Laboratory results published in publication PMC3898417, “A peptide derived from TIMP-3 inhibits multiple angiogenic growth factor receptors and tumour growth and inflammatory arthritis in mice” (Angiogenesis, 2013).
Bridges are numbered along the chain shown (N, C = ends). Where no end group is shown, it is not given here.

How the values were obtained:
HuDMEC [1] = experiment: VEGF165-induced cell proliferation (BrdU); type: cell-based, human; conditions: peptide 1 h then 0.5 nM VEGF165 24 h, up to 1 μM, n = 4
Protocol: Human dermal microvascular endothelial cells were serum-starved followed by incubating with p700 peptide for 1 h and then 0.5 nM of VEGF165 for 24 h at 37 °C. Cell proliferation was determined using a BrdU cell proliferation assay kit (Merck Chemicals Ltd, Nottingham, UK).

HuDMEC [2] = experiment: VEGF165-induced cell migration (Boyden chamber); type: cell-based, human; conditions: 0.5 nM VEGF165, 4.5 h, up to 1 μM, n = 4
Protocol: The ability of the p700 peptide to inhibit VEGF165-induced EC migration was determined using a multi-well Boyden chamber (Neuro Probe, Gaithersburg, USA). Briefly, serum-starved HuDMEC were treated with p700 for 1 h, washed and plated in the upper chamber in EBM-2 medium containing 1 % FCS on an 8 μm fibronectin pre-coated polycarbonate filter (Neuro Probe, Gaithersburg, USA). The cells were then left to migrate across the filter for 4.5 h at 37 °C with media containing 0.5 nM VEGF165 in the presence and absence of inhibitors in the lower chamber. After the incubation, non-migrating cells on the upper side of the membrane were scraped off and the migrated cells were stained with Hema Gurr® rapid staining kit (Merck Chemicals Ltd, Nottingham, UK). Migrated cells were counted using a light microscope at 160× magnification in three random fields per well of three separate wells.

HuDMEC [3] = experiment: Tube formation assay on Matrigel; type: cell-based, human
Protocol: Serum-starved HuDMEC were seeded onto Matrigel™ matrix pre-coated 96 well plates (BD Biosciences, Cowley, Oxford, UK) at a density of 1 × 10^4 cells/well in 100 μl EBM-2 medium. Peptides were then added into each corresponding well and incubated for 1 h at 37 °C, followed by stimulated with growth factors, 0.5 nM VEGF165, 1 nM PDGF-BB or 1.6 nM bFGF, to induce tubule development. The tubules formed were examined 6 h after stimulation under a low power (40×) light microscope. Images were captured and analysed by measuring the average tubule length using ImageJ software (National Institutes of Health, USA).

FGFR-1 = experiment: Phosphorylation RTK sandwich ELISA; type: cell-based, human; conditions: HuDMEC, peptide 1 h, ligand 5 min, n = 3
Protocol: (§1) Serum-deprived HuDMEC were pre-treated with test peptides for 1 h and then stimulated with growth factors (0.5 nM VEGF165, 1.6 nM bFGF, 1 nM PDGF-BB, 1.6 nM hepatocyte growth factor, 100 ng/ml EGF or 100 ng/ml insulin-like growth factor I) for 5 min. Cells were then lysed and phosphorylated proteins detected using (a) a receptor tyrosine kinase array (Human Phospho-Receptor Tyrosine Kinase Array Kit, R&D Systems Ltd.) or (b) sandwich ELISA (Duo-sets, R&D Systems Ltd.) according to the manufacturer’s instructions.

FGFR-2α = experiment: Phosphorylation RTK sandwich ELISA; type: cell-based, human; conditions: HuDMEC, peptide 1 h, ligand 5 min, n = 3
Protocol: as §1

FGFR-3 = experiment: Phosphorylation RTK sandwich ELISA; type: cell-based, human; conditions: HuDMEC, peptide 1 h, ligand 5 min, n = 3
Protocol: as §1

FGFR-4 = experiment: Phosphorylation RTK sandwich ELISA; type: cell-based, human; conditions: HuDMEC, peptide 1 h, ligand 5 min, n = 3
Protocol: as §1

HGFR = experiment: Phosphorylation RTK sandwich ELISA; type: cell-based, human; conditions: HuDMEC, peptide 1 h, 1.6 nM hepatocyte growth factor 5 min
Protocol: as §1

PDGFR-α = experiment: Phosphorylation RTK sandwich ELISA; type: cell-based, human; conditions: HuDMEC, peptide 1 h, ligand 5 min, n = 3
Protocol: as §1

VEGFR-1 = experiment: Phosphorylation RTK sandwich ELISA; type: cell-based, human; conditions: HuDMEC, peptide 1 h, ligand 5 min, n = 3
Protocol: as §1

VEGFR-2 = experiment: Phosphorylation RTK sandwich ELISA; type: cell-based, human; conditions: HuDMEC, peptide 1 h, ligand 5 min, n = 3
Protocol: as §1

VEGFR-3 = experiment: Phosphorylation RTK sandwich ELISA; type: cell-based, human; conditions: HuDMEC, peptide 1 h, ligand 5 min, n = 3
Protocol: as §1

[4] = tested on: insulin-like growth factor 1 receptor; experiment: Phosphorylation RTK sandwich ELISA; type: cell-based, human; conditions: HuDMEC, peptide 1 h, 100 ng/ml insulin-like growth factor I 5 min
Protocol: as §1

4T1 mammary tumour = experiment: Syngeneic mammary tumour model (4T1); type: in vivo, BALB/c mice
Protocol: 10^6 4T1 cells were subcutaneously (s.c.) implanted into the right flank of 5–6 weeks old female BALB/c mice (Charles River Laboratories, Margate, UK) and grown until the tumour size reached 100–350 mm^3. The tumour sizes were measured using callipers as described previously. Once the size of the tumours reached 100–350 mm^3, mice were randomized into control and treatment groups and injected with either vehicle alone (PBS), 0.025, 0.25 or 2.5 mg/kg of p700 peptide in PBS, either directly into the tumour (i.t.) once per week for 2 doses; or intravenously (i.v.) every other day for 5 doses. At the end of the experiment, animals were culled and tumours and normal tissues, including lung and liver, excised and fixed with 10 % neutral buffered formalin for subsequent analysis, which included general histology and quantitative measurement of microvascular density (MVD) and necrosis. For MVD measurement, rabbit-anti-mouse CD31 (AbD Serotech, Kidlington, Oxford, UK) antibody was used and sections were stained according to standard immunohistological staining protocols for formalin-fixed tissue sections. Microvessel density was estimated by measuring the percentage of CD31 positive staining in the tumour sections (15 areas per tumour slide, 7 tumour slides per group) using AnalySIS^^D image analysis software (Olympus, UK). For the necrotic area inside the tumour, tumour slides were stained with H&E. Images were measured at 200× magnification, photographed (15 areas per tumour slide, 7 tumour slides per group) and analysed by AnalySIS^^D image analysis software (Olympus, UK). Normal tissues including lung and liver were stained with H&E to study tumour metastasis. Total number of metastases per mouse was determined as the number of metastatic foci on five sections for each animal (n = 7). Incidence of metastasis was calculated as the percentage of mice with one or more metastatic nodules in the tissues. Metastasis severity was scored as follows: […], minimal (score 1 = ≤ 4 metastatic nodules), medium (score 2 = 5–7 metastatic nodules) or extensive involvement (score 3 = ≥ 8 metastatic nodules). Each nodule contained ≥5 nuclei.

[5] = tested on: collagen-induced arthritis; experiment: Collagen-induced-arthritis mouse (CIA) model; type: in vivo, DBA-1 mice; conditions: 2.5 mg/kg i.v. every 2 days

KIKSCYYLPCFVTSKN (disulfide 5-10 (inferred)) [p700]
maximum inhibition of VEGF165-induced cell proliferation (HuDMEC [1]): 40% | maximum inhibition of VEGF165-induced migration (HuDMEC [2]): 67% | inhibition of VEGF165-induced HuDMEC tube formation (HuDMEC [3]; 1 μM peptide, 0.5 nM VEGF165, 6 h, n = 4): > 99% | inhibition of tubule formation in response to VEGF121 (HuDMEC [3]; 1 μM peptide, VEGF121, n = 4): > 97% | inhibition of PDGF-BB-induced tubule formation (HuDMEC [3]; HuDMEC, 1 nM PDGF-BB, 6 h, n = 3, Fig. 3b): inhibited | inhibition of bFGF-induced tubule formation (HuDMEC [3]; HuDMEC, 1.6 nM bFGF, 6 h, n = 3, Fig. 3b): inhibited | effect on tubule formation in the absence of VEGF (HuDMEC [3]; relative to untreated cells, data not shown): no effect | inhibition of FGFR-1 phosphorylation (FGFR-1): significant inhibition | inhibition of FGFR-2α phosphorylation (FGFR-2α): significant inhibition | inhibition of FGFR-3 phosphorylation (FGFR-3): significant inhibition | inhibition of FGFR-4 phosphorylation (FGFR-4): significant inhibition | inhibition of HGFR phosphorylation (HGFR): no inhibition | inhibition of PDGFR-α phosphorylation (PDGFR-α): significant inhibition | inhibition of VEGFR-1 phosphorylation (VEGFR-1): significant inhibition | inhibition of VEGFR-2 phosphorylation (VEGFR-2): significant inhibition | inhibition of VEGFR-3 phosphorylation (VEGFR-3): significant inhibition | inhibition of insulin-like growth factor 1 receptor phosphorylation [4]: no inhibition | increased tumour necrosis (4T1 mammary tumour; H&E sections, treated group vs control): failed to reach significance | reduction in microvascular density (anti-CD31 staining) (4T1 mammary tumour; both treatment groups (i.t. and i.v.) compared to control groups, n = 7 tumours/group): approximately 50% | effect on tumour growth, intravenous dosing (4T1 mammary tumour; i.v. every 2 days, 0.25 mg/kg or above, 4T1 s.c. in BALB/c mice, n = 7): almost totally abolished tumour growth | decreased metastases (4T1 mammary tumour; lung and liver H&E sections, treated group vs control): failed to reach significance | effect on tumour growth, intra-tumour dosing (4T1 mammary tumour; weekly i.t. dose of 0.25 mg/kg, 4T1 s.c. in BALB/c mice, n = 7): almost totally abolished tumour growth | CIA progression ([5]; 7 doses, vehicle n = 8, p700 n = 10): significantly inhibited | clinical presentation of disease (arthritis score) ([5]; p < 0.001 2-way ANOVA): reduced | hind paw inflammation (hind paw volume) ([5]; plethysmometry, p < 0.05 2-way ANOVA, AUC NS): reduced
